Measurements reported in patent US20050123478A1, “Agent for measurement of singlet oxygen” (Daiichi Pure Chemicals Co., Ltd, priority 2000, published 2005).

Assays:
[1] = Measurement of singlet oxygen generated by naphthalene endoperoxide EP-1 (fluorescence)
Description: Singlet oxygen was generated continuously with time under a neutral condition at 37° C. in given amounts by using a naphthalene endoperoxide compound EP-1 (Saito, I, et al., J. Am. Chem. Soc., 107, pp. 6329-6334, 1985) as a singlet oxygen generation system. Fluorescence was measured in the presence of DMAX and DPAX-1 [100 mM phosphate buffer (pH 7.4), DMSO (0.1%)].

[2] = Light stability (photobleaching) of the endoperoxide under continuous excitation light; type: physicochemical; settings: 5.0 μM aqueous solution, 0.1 M phosphate buffer (pH 7.4), 0.1% DMSO, excitation light 491 nm, 37° C., fluorescence at 520 nm
Description: 5.0 μM aqueous solutions of DMAX-EP (endoperoxide of Compound 11 in the above scheme) and DPAX-1-EP (endoperoxide of Compound 13 described in International Patent Publication WO99/51586, Example 1) [0.1 M phosphate buffer (pH 7.4) containing 0.1% DMSO as a cosolvent]were each placed in a fluorescent cell and exposed to an excitation light of 491 nm at 37° C. with stirring, and fluorescence was measured at 520 nm by using a fluorometer while the solution was continuously exposed to the excitation light.

| SMILES | Increase of fluorescence intensity with 0.5 mM EP-1 compared with 10 mM EP-1 in the presence of DPAX-1 ([1]; 100 mM phosphate buffer (pH 7.4), DMSO (0.1%), 37° C.) | Fluorescence intensity on generation of singlet oxygen ([1]; EP-1 increased from 0.1 mM to 0.5 mM and to 1.0 mM, 100 mM phosphate buffer (pH 7.4), DMSO (0.1%), 37° C.) | Sensitivity for singlet oxygen compared with DPAX-1 ([1]; EP-1 singlet oxygen generation system, pH 7.4, 37° C.) | Photobleaching, times slower than that of DPAX-1-EP [2] [times] |
| --- | --- | --- | --- | --- |
| Cc1c2ccccc2c(C)c2cc(-c3c4ccc(=O)cc-4oc4cc(O)ccc34)c(C(=O)O)cc12 [DMAX] | far larger | increase of fluorescence intensity dependent on the generated amount of singlet oxygen | much higher sensitivity |  |
| CC12OOC(C)(c3ccccc31)c1cc(-c3c4ccc(=O)cc-4oc4cc(O)ccc34)c(C(=O)O)cc12 (stereo not shown) [DMAX-EP] |  |  |  | 54 |
